Tests used:
[1] = test system: A-to-I RNA editing reporter (ADAR) in A375; assay: A-to-I PepTile (REPTILE) screen: A-to-I editing of dsRNA hairpin reporter by NGS; assay type: cell-based, human; conditions: for % A-to-I editing (IFNα): IFNα 6000 U/ml for 48 hours; for % A-to-I editing (Basal): no treatment
Description: (§1) FIGS. 12A-12D. A-to-I PepTile screen. (A) Composition of A-to-I PepTile linrary screen, and schematic description of the lentiviral expression vector. (B) Experimental workflow. A375 cells were transduced at low MOI, and then treated or not with IFNα for 48 hrs. RNA was extracted and Peptide_ADARreporter RNA species were amplified and sequenced by NGS. (C) Dot plot of A-to-I PepTile library effect on A-to-I editing with or without IFNα treatment. Red line is the mean A-to-I editing of all the 8088 peptides (>100 read counts) no treatment: 25.75% IFNα: 37.6%. (D) Dot plot of A-to-I PepTile library fitness effect upon IFNα for 48 hrs.
FIGS. 17A-17F show A-to-I RNA Editing PiTile (REPTILE) screen in A375. (A) A-to-I RNA Editing PiTile (REPTILE) library design consist of fragmentation of all known ADAR1, ADAR2 interactors and all human double stranded RNA-binding protein into 40 amino acid long peptide. This library was then cloned into a lentivirus vector that also encode a DNA-encoded RNA loop reporter (A-to-I Rep) that is edited by ADAR proteins in cells at the RNA level. When the construct is expressed, the RNA loop gets edited on a single Adenosine, while the 40-mer peptide get expressed at the protein level. Then we can measure the impact of the peptide expression on the editing rate of the RNA loop reporter by sequencing (NGS and Sanger). (B) Experimental workflow of REPTILE screen in A375 cell line. Cells were transduced with the REPTILE library, and then treated for 48 hours with IFNα. Following the treatment, RNA was harvested, converted into cDNA and amplicon library containing peptide Identity (barcode) linked to the RNA loop reporter were prepared for NGS. (C) Result of the A375 REPTILE screen in the no treatment condition. Each dot represents a unique peptide that is associated with an A-to-I editing rate that was measured on the RNA loop. (D) Result of the A375 REPTILE screen in the IFNα condition. Each dot represents a unique peptide that is associated with an A-to-I editing rate that was measured on the RNA loop. Red line represent the A-to-I editing mean, Dash blue line represent 2 times the standard deviation of the % A-to-I editing across all the datasets. This cutoff was used to defined peptides hits that modulate RNA A-to-I editing. (E) Peptide A-to-I Inhibitor Hits intersection between no treatment (% A-to-I editing<15%) and IFNα (% A-to-I editing<27%) conditions. (F) Peptide A-to-I Enhancers Hits intersection between no treatment (% A-to-I editing>36%) and IFNα (% A-to-I editing>47%) conditions.
Provided herein is a screening methodology to measure the effect of small peptide on A-to-I RNA editing in situ and screen thousands of peptides in a single experiment. First, a library of peptides with the potential of impairing A-to-I editing was designed and built. ADAR enzymes edit RNA only on double-stranded RNA structures and via ADAR's double stranded RNA-Binding Domain (dsRBD). […] The A-to-I PepTile library is composed of 19 Human proteins having dsRBD and 34 known protein-protein interactors of ADAR1/2. All these proteins were tiled into 40-mer peptides every 4 amino acids (FIG. 12A). To measure A-to-I editing, a biosensor consisting of a 71 bp dsRNA hairpin structure that gets A-to-I edited at a rate of 25% in A375 melanoma cells, and ~37% upon IFNα treatment was used. This A-to-I editing reporter is fused with DNA sequence encoding for a peptide from the A-to-I PepTile library. The A-to-I PepTile plasmid pool (10304 elements) was used to produced lentiviruses and transduced A375 cells at a low multiplicity of infection (MOI) (FIG. 12B). A part of the infected cells was treated with IFNα at 6000 U/ml for 48 hours, and then bulk RNA of the basal and treated condition was harvested. RNA was then retrotranscribed into cDNA and sequenced by Next-Generation Sequencing (NGS). […]

A375 cells = assay: A-to-I PepTile screen: fitness effect upon IFNα (PepTile abundance untreated vs treated); assay type: cell-based, human
Description: as §1
Provided herein is a screening methodology to measure the effect of small peptide on A-to-I RNA editing in situ and screen thousands of peptides in a single experiment. First, a library of peptides with the potential of impairing A-to-I editing was designed and built. ADAR enzymes edit RNA only on double-stranded RNA structures and via ADAR's double stranded RNA-Binding Domain (dsRBD). […] The A-to-I PepTile library is composed of 19 Human proteins having dsRBD and 34 known protein-protein interactors of ADAR1/2. All these proteins were tiled into 40-mer peptides every 4 amino acids (FIG. 12A). To measure A-to-I editing, a biosensor consisting of a 71 bp dsRNA hairpin structure that gets A-to-I edited at a rate of 25% in A375 melanoma cells, and ~37% upon IFNα treatment was used. This A-to-I editing reporter is fused with DNA sequence encoding for a peptide from the A-to-I PepTile library. The A-to-I PepTile plasmid pool (10304 elements) was used to produced lentiviruses and transduced A375 cells at a low multiplicity of infection (MOI) (FIG. 12B). A part of the infected cells was treated with IFNα at 6000 U/ml for 48 hours, and then bulk RNA of the basal and treated condition was harvested. RNA was then retrotranscribed into cDNA and sequenced by Next-Generation Sequencing (NGS). With the sequencing data, the A-to-I editing percentage of the RNA reporter for each PepTile is calculated since both elements are encoded on the same transcript. Moreover, with this screen one can also measure the abundance of the PepTiles between the untreated and treated conditions and determine Fitness score associated to every PepTile. To ensure a robust and more accurate A-to-I editing % estimation a cut-off of 100 read counts was set for each PepTile. […] SEQ ID NOs: 2125-2147 are A-to-I peptide inhibitors and SEQ ID NOs: 2148-2210 are A-to-I activators. In addition, 117 PepTiles were identified that either synergize (SEQ ID NOs: 2211-2243) or protect (SEQ ID NOs: 2244-2327) to IFNα-induced cell death (FIG. 12D and Table 5). These PepTiles are potential new therapeutic agents that can modulate the Interferon pathway. They may be beneficial in treating inflammatory conditions and may also enhance the effectiveness of cancer immunotherapy through synergistic effects.

[2] = IFNα 6000 U/ml for 48 hours vs untreated
[3] = A375, PepTile abundance upon IFNα treatment, negative = synthetic lethal, positive = protector

Sequence | % A-to-I editing (IFNα) [1] | % A-to-I editing (Basal) [1] | Fitness Score IFNα (A375 cells; [2]) | Fitness Score IFNα (A375 cells; [3])
MFPAVCAHSKKQGKQEAADAALRVLIGENEKAERMGFTEVT [ADAR_193] | 22.77% | 11.47% | 0.57 | –
MRPFQALPREQSPPPPLQTSSGAEVMDVGSGGDGQSELPAE [DGCR8_7] | 54.04% | 40.23% | 0.13 | –
MYSGYEAAVYSAASSYYQQQQQQQKQAAAAAAAAAATAAWT [ZFR_67] | 47.21% | 41.43% | 2.43 | 2.43
MQPQTTINKEQFSKRKNDTLDPELFVECTECGRKMHQICVL [EP300_306] | 20.81% | 12.58% | -0.25 | –
MASLQISPQPRPWRPLPAQAQSAWGPAPAPATYRAEGGWPQ [ADAD2_6] | 48.57% | 40.89% | 3.12 | 3.12
MSLLTGLSDSQVRAFRHTSTLAAMKLMTALVNVALNLSIHQ [STAG1_52] | 58.66% | 46.34% | -0.26 | –
MAVEITGAGPGASSVCNSAPGSGPSSPNSSHSTIAENGFTG [HDAC5_75] | 55.71% | 40.79% | 0.76 | –
MLANFGPRINDIKRIIQSREREMKDLKEKMNQVEDEVFEEF [SMC1A_186] | 56.93% | 55.39% | 0.69 | –
MESTIVEPKQNENRLSDTKPNDNKQNNGRSETTKSRPETPK [NIPBL_167] | 52.90% | 39.35% | 1.11 | –
MLEQCNTELKKYSHVNKKALDQFVNFSEQKEKLIKRQEELD [SMC3_243] | 47.01% | 42.74% | -0.61 | –
MDTVISLLTGLSDSQVRAFRHTSTLAAMKLMTALVNVALNL [STAG1_51] | 80.32% | 74.10% | -0.15 | –
MRNAEFLTCNIPTSNASNNMVTTEKVENGQEPVIKLENRQE [ADAR_97] | 51.11% | 40.12% | -1.27 | –
MVGEYSNLEVNASWTKERWNQEFTKHQVLIMTCYVALNVLK [DICER1_31] | 48.57% | 37.36% | 0.94 | –
MKTPIQVLHEYGMKTKNIPVYECERSDVQIHVPTFTFRVTV [PRKRA_9] | 48.95% | 43.02% | -0.21 | –
MKECVDHLSRDEDEEKLVASLWGAERCLRVLESVTVHNPEN [WAPAL_208] | 50.33% | 50.48% | 1.55 | –

— US20260285924A1, “PEPTIDE THERAPEUTICS” (priority 2023, published 2026)
